Substitutions are numbered along the chain they refer to. Entries after “also recorded” stand apart in the source; their conditions may differ. Like-named read-outs stand apart in the source and are kept apart here.

The target in series [1] is T1, WT CocE (Rhodococcus sp., UniProt Q9L9D7).
T1 sequence (Q9L9D7 1-574): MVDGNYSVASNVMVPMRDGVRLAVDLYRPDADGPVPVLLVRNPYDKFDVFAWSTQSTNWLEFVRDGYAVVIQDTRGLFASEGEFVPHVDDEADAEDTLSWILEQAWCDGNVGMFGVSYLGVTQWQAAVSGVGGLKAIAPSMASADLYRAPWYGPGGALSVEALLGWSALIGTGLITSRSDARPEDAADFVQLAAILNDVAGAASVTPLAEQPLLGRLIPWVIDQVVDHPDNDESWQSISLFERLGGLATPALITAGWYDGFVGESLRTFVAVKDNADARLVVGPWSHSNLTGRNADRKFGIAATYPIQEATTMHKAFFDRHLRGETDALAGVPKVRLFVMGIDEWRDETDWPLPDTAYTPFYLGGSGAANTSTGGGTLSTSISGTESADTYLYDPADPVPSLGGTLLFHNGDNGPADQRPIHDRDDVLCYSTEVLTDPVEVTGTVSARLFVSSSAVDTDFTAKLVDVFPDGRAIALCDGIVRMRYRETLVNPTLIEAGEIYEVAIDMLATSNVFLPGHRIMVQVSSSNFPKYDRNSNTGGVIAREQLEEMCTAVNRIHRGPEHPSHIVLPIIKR
Particulars: for melting temperature of WT CocE in presence of compound: excess benzoic acid, 5× molarity phenylboronic acid, 6031818. As for the experimental part:
Further characterization of the stability of wild type (WT) CocE and thermostable mutants was performed through circular dichroism, which detects small changes in protein conformation and structure. Analysis by repeated CD measurements at increasing temperatures allows analysis of the thermodynamics and melting temperature (TM) of the protein, so long as the melting is reversible (i.e. the protein resumes it's original conformation upon cooling). […] However CD is still of value in determining the temperature to unfolding.

Series [2] deals with T2, CocE mutant L169K (Rhodococcus sp., UniProt Q9L9D7, L169K).
T2 construct: 6xHis (C); made in house; host or cells: E. coli BL-21 Gold (DE3), pET-22b(+)
T2 sequence (Q9L9D7 1-574 L169K): T1 sequence (Q9L9D7 1-574) with L169K
Nature of the series: Circular dichroism melting of L169K in the presence of phenylboronic acid. Format: physicochemical, Rhodococcus sp. MB 1. As for the experimental part: CD analysis of another CocE mutant, L169K, established a ˜65° C. melting temperature alone, and ˜85° C. melting temperature in the presence of phenylboronic acid (FIG. 18), i.e. phenylboronic acid conferred an additional 20° C. melting to the already high original melting temperature for L169K.

Series [3] concerns the target T3, CocE WT (Rhodococcus sp., UniProt Q9L9D7).
T3 construct: 6xHis (C); made in house; host or cells: E. coli BL-21 Gold (DE3), pET-22b(+)
T3 sequence (Q9L9D7 1-574): T1 sequence (Q9L9D7 1-574)
Nature of the series: Inhibition of CocE WT aggregate formation, non-denaturing gel, 1 hour at 37° C. Details: species or system Rhodococcus sp. MB 1. Particulars: read-out: 50% stabilization concentration. An excerpt: To further study CocE stabilization with small molecules, other inhibitors of the CocE cleavage reaction were considered.

Series [4] addresses T4, CocE (Rhodococcus sp., UniProt Q9L9D7).
T4 construct: 6xHis (C); made in house; host or cells: E. coli BL-21 Gold (DE3), pET-22b(+)
T4 sequence (Q9L9D7 1-574): T1 sequence (Q9L9D7 1-574)
Format: biochemical, Rhodococcus sp. MB 1. The procedure: Analysis of CocE action on cocaine cleavage is performed by utilizing the spectroscopic properties of cocaine, which maximally absorbs light at a 240 nm wavelength. CocE activity is measured by monitoring for a decrease in signal at A240, using various concentrations of cocaine, and determining the initial rate of the decrease. From these values the Vmax of the enzyme can be determined. By pre-incubating the enzyme at 37° C. for various times before monitoring for activity, the half life of CocE at 37° C. can be calculated.
The initial rates (of decay) were determined by following the change in the intrinsic absorbance of cocaine at 240 nm (6700 M^1 cm^1)(Xie et al., 1999) using a SpectraMax Plus 384 UV plate reader (Molecular Devices, Sunnyvale, Calif.) using SOFTmax Pro software (Version 3.1.2). The reaction was initiated by adding 100 μL of a 2× enzyme solution (100 mM phosphate buffer, pH 7.4 and 300 mM NaCl) to 100 μL of a 2× cocaine solution (50 μg/mL enzyme, 100 mM Phosphate Buffer, pH 7.4 and 300 mM NaCl). All assays were performed with 100 μM DTT unless indicated otherwise. Final cocaine concentrations were as follows: 125, 62.5, 31.25, 15.63, 7.81, 3.91, 1.95, and 0.977 μM. Vmax and Km values were calculated using Prism (GraphPad Software, San Diego). For stability measurements, wild type and mutant enzymes were diluted to 2× concentration and incubated at 37° C. for the times indicated. At the end of each time point, an aliquot was removed and kinetic behavior was observed as outlined above.
(§1) In vitro kinetic assays. […] Initial rates were then used to determine Michaelis-Menten parameters. To assess thermal stability, enzyme preparations were preincubated at 37° C. for various lengths of time, prior to measurement of residual activities (Table 1 and FIG. 23).

The target of series [5] is T4, CocE. In words: Effect of DTT on decay of CocE activity at 37° C. Format: biochemical, Rhodococcus sp. MB 1. Particulars: DTT 10 mM. The procedure:
as §1

In series [6] the target is T4, CocE. It counts as biochemical, Rhodococcus sp. MB 1. As for the experimental part:
CocE is also able to cleave another substrate, 4-nitrophenyl acetate (FIG. 3). Cleavage is monitored by detection of the appearance of the 4-nitrophenol reaction product, which absorbs at 400 nm.
Further spectrophotometric analysis of cocaine stabilization was performed, by analyzing the ability of CocE to cleave 4-nitrophenyl acetate, after preincubation at 37° C. for various times, in the presence of various concentrations of cocaine. […] However, preincubation of CocE at the higher concentrations for various times at 37° C. indicated the enzyme was stabilized enough to be able to cleave the 4-nitrophenyl substrate (FIG. 5).
The source holds these as a separate data set.

The target of series [7] is T4, CocE. Nature of the series: Screen for stabilization of CocE: 1 hour at 37° C., then 4-nitrophenyl acetate cleavage. It counts as biochemical, Rhodococcus sp. MB 1. The conditions noted are these: forty compounds tested. As for the experimental part: However all of these small molecules inhibited enzyme activity to certain degrees. It was evaluated whether there might exist a small molecule that could prevent CocE aggregation, without inhibiting enzyme activity. Such a molecule could be used as a stabilizer in vitro, e.g., during enzyme preparation, and in vivo. An assay was designed to screen a library of 20,000 small molecules for stabilization of CocE. In that assay, the enzyme is mixed with the compounds in a 96-well plate format, and then incubated at 37° C. for one hour. […] After 37° C. incubation, the enzyme/compound mixtures are tested for the ability to cleave 4-nitrophenyl acetate (FIG. 8). Only compounds stabilized would be able to cleave after this incubation period.
Forty compounds were first tested. The compounds were assayed in duplicate with appropriate controls. A duplicate plate (without enzyme) was performed as a negative control, to check for compounds able to cause an increase in 400 nm absorbance in the absence of CocE. […] Some were able to do this in the absence of CocE. These were discarded as false positives.
FIG. 9 is a plot of the initial rate of 4-nitrophenyl acetate cleavage for all compounds, after the background “no enzyme” cleavage was subtracted. […]

`OB(O)c1ccccc1` [Phenylboronic acid, phenylboronic acid]: the “melting temperature higher than the T172R mutant” value in series [1] (WT CocE with compound) is “more than 30 degrees”. For the same molecule, in series [1], the “melting temperature of WT CocE in presence of compound” value was 73 °C. In series [2], the “additional melting conferred to L169K” value was found to be 20 °C and the “melting temperature of L169K in presence of compound” value was roughly 85 °C. Further, in series [3], the EC50 was roughly 0.2 µM.

One may read the Ki as a measure of affinity in units of concentration, obtained from inhibition or displacement. Usually IC50 stands for the concentration at which inhibition is half-maximal. For the molecule `O[C@@H](CS)[C@@H](O)CS` [DTT], the Ki in series [4] (cocaine hydrolysis, mixed competitive and non-competitive) was roughly 380 µM. This molecule also displayed an IC50 in series [4] (wt-CocE) of roughly 390 µM. The “effect on decay / τinact of wt-CocE” value in series [5] is on record as “shortens; also recorded: accelerate the decay”.

Consider `CCOc1ccccc1N(CC(=O)N1CCCCC1)S(=O)(=O)c1ccccc1` [compound 6031818], for which, in series [1], the “melting temperature of WT CocE in presence of compound” value is roughly 42 °C. Besides, the “inhibition of 4-nitrophenyl acetate cleavage” value in series [6] was 16 µM; in series [6] (cocaine: 62.5 and 125 μM, benzoic acid: higher concentrations), “weak inhibitor”. In addition, the “inhibition of cocaine cleavage” value in series [4] was “does not inhibit”. In addition, the “effectiveness in stabilization screen” value in series [7] was “most effective”.

(Values after patent US9526786B2, “Thermostabilization of proteins” (The Trustee of Columbia University in the City of New York, priority 2007, dated 2016).)
